Key:
[1] = system: rLZ-8 internalization in Hep G2 cells; assay: Inhibitor screening of rLZ-8 endocytosis; type: cell-based
Description: The rLZ-8 is labeled by an Alexa Fluor 568 fluorescent probe; then 10 μg/mL fluorescent labeled rLZ-8 acts on Hep G2 cells for 3 hours; whether the rLZ-8 enters the cell is observed with the ultrahigh resolution imaging system; and obtained images are reconstructed, fitted and further analyzed through an image analysis software of Imaris.
Inhibitors of different internalization ways are selected, respectively EIPA (macropinocytosis inhibitor), Wortmannin/LY294002 (P13K inhibitor), Nystatin+Progesterone (caveolae inhibitor) and Chlorpromazine (clathrin inhibitor); the inhibitors respectively act on the Hep G2 cells, and inhibitory effects of the inhibitors on rLZ-8 endocytosis are observed.

[2] = system: human liver cancer Hep G2 cells; details: for Mice weight after experiment: mouse, in vivo; for Mice tumor weight after experiment / Survival rate of mice after experiment: qd×28 i.v., rLZ-8 and mutants 0.5 mg/kg, sorafenib 50 mg/kg; for Survival rate of mice after experiment: 10 mice per group
Source text: Two weeks later, the model mice are divided into groups randomly, and each group has 10 mice. The administration method is caudal vein injection, once a day, for consecutive 28 days (qd×28, i.v.). […] During the experiment, if the mouse dies, the dead mouse is weighted on the same day, and the tumor tissue is taken out to be weighted. For the living mouse after administration for 28 days, the mouse is killed, and then the tumor tissue is taken out to be weighted. The death time and death number of the mice in each group are recorded in detail; the survival conditions of the mice of the experimental groups and the control groups are analyzed, and the survival rate is calculated, wherein the survival rate is obtained through subtracting the death number of the mice from the total number of the mice, and then dividing the difference by the total number of the mice.

Hep G2 cells = assay: Cell death after rLZ-8 internalization; type: cell-based; details: 100 μg/mL, 5 hours
Source text: With the ultrahigh resolution imaging system, the whole change process of the cell after the internalization of the rLZ-8 is observed in real time; and, combined with the above researches, the reason why the rLZ-8 causes the tumor cell death is judged.

[3] = system: human breast cancer MCF7 cells; assay: Orthotopic transplantation tumor model of human breast cancer MCF7 cells; type: in vivo, BALB/c nude mice; details: after administration for 28 days
Description: One day before the experiment, 0.5 mg of 17ß estradiol sustained release tablet is embedded below the neck skin of the BALB/c nude mice.

[4] = target: EGFR extracellular domain (Homo sapiens, UniProt P00533); assay: Affinity test by surface plasmon resonance (Biacore T200, CM5 chip); type: binding; details: EGFR extracellular domain coupled on CM5 chip, analyte 4-256 nM
Description: The Biacore™ T200 equipment (a Surface Plasmon Resonance from GE Company) is selected. Through the surface plasma resonance technology, the affinity of the rLZ-8 and the mutants thereof to the EGFR extracellular domain is tested. The CM5 chip is adopted to serve as the affinity test chip.
The EGFR extracellular domain (with an amino acid sequence of 25-645) serves as the ligand for coupling; 1 mg EGFR freeze-dried powders are diluted with HEPES buffer solution to a concentration of 400 μg/mL and set aside. Three 1.5 mL EP tubes are prepared; 10 μL ligand are respectively added into the three tubes, then 90 μL 10 mM sodium acetate with different pH values of 4.5, 5.0 and 5.5 are respectively added into the tubes and are mixed completely and uniformly; and a final concentration of the ligand is 40 μg/mL. Moreover, 200 μL 50 mM sodium acetate is added into another 1.5 mL EP tube.
The ligand has a molecular weight of 70 kDa, the analyte (rLZ-8) has a molecular weight of 12.4 kDa. In theory, one rLZ-8 […] can bind with one EGFR, and thus the stoichiometric ratio Sm is equal to 1. Through the following equations, the coupling amount RL of the ligand is calculated.
Through the experimental experience, the optimal reagent coupling amount is set to be 3*RL, and the coupling amount is set to be 1700 RU. The EGFR extracellular domain is successively coupled on the CM5 chip. […]

[5] = system: transplanted liver cancer cells H22; details: mouse; cited from earlier work
[6] = system: human colon cancer SW480 cells; assay: Transplantation tumor model of human colon cancer SW480 cells; type: in vivo, BALB/c nude mice; details: after administration for 28 days
Description: The RPMI1640 medium containing 10% fetal bovine serum is selected for the human colon cancer SW480 cells, and then is placed in the CO2 constant-temperature incubator at 37° C. for culturing. The SW480 cells at the logarithmic phase are digested by pancreatin and thereafter washed with serum-free RPMI1640 medium; 2×10^6 cells are inoculated below the back skin of the BALB/c nude mice; after the tumor blocks for observation are formed and have the diameter larger than 0.5 cm, the mice are divided into groups randomly; and the transplantation tumor model of human colon cancer SW480 cells are constructed in the BALB/c nude mice.

S180 = details: mouse; cited from earlier work
[7] = system: human lung cancer A549 cells; assay: Orthotopic transplantation tumor model of human lung cancer A549 cells; details: after administration for 28 days;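 also: test animals were NOG mice aged 6-8 weeks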
Description: The human lung cancer A549 cell strain is selected. The NOG Mice of 6-8 weeks old are selected.
The DMEM containing 10% fetal bovine serum is selected for the human lung cancer A549 cells, and then is placed in the CO2 constant-temperature incubator at 37° C. for culturing. The A549 cells at the logarithmic phase are digested by pancreatin and thereafter washed with serum-free DMEM; the living cell concentration is adjusted to 1×10^8 cells per milliliter; 20 μL cell suspension is taken and inoculated at the lung of the NOG mice; two weeks later, the orthotopic transplantation tumor model of A549 lung cancer cells is constructed in the NOG mice.

[8] = system: EGFR, c-Met, PDGFR, N-cadherin and LDLR; assay: Immunofluorescence co-localization of rLZ-8 with membrane receptors; type: cell-based
Description: Considering that the high internalization degree of the rLZ-8 may be caused by the internalization after binding with a receptor on the cytomembrane, the rLZ-8 and the receptor on the cytomembrane are screened. Relationships between the different receptors on the cytomembrane and the tLZ-8 are measured through an immunofluorescence method. Fluorescent labels are made respectively on antibodies of EGFR, c-Met, PDGFR, N-cadherin and LDLR, and co-localization situations thereof with the rLZ-8 are respectively observed.

Compound: CCN(c1nc(N)c(C(=O)NC(=N)N)nc1Cl)C(C)C [EIPA]
- Inhibitory effect on rLZ-8 internalization (in words) ([1]; Hep G2 cells): effectively inhibits the internalization of the rLZ-8

Compound: CNC(=O)c1cc(Oc2ccc(NC(=O)Nc3ccc(Cl)c(C(F)(F)F)c3)cc2)ccn1 [Sorafenib, sorafenib, reference compound]
- Mice weight after experiment [2]: 19.6 ± 1.6 g
- Mice tumor weight after experiment [2]: 0.82 ± 0.37 g
- Survival rate of mice after experiment [2]: 50%

Compound: mβCD
- Inhibition of internalization efficiency of the rLZ-8 [1]: 50%

Compound: rLZ-8: recombinant immunoprotein of Ganoderma lucidum, sequence SEQ ID NO: 1, expressed in Pichia pastoris
- Cell death (in words) (Hep G2 cells): shrinkage, burst and death of Hep G2 cells happen
- Mice tumor weight after experiment [3]: 0.74 ± 0.35 g
- Dissociation rate constant (koff) [4]: 0.000583 s⁻¹
- Ka [4]: 63400 M⁻¹ s⁻¹
- In vivo half-life period (in words) (In vivo half-life period): relatively short in vivo half-life period
- Mice weight after experiment [2]: 19.8 ± 1.4 g
- Mice tumor weight after experiment [2]: 0.62 ± 0.53 g
- Survival rate of mice after experiment [2]: 60%
- In vivo tumor growth (in words) [5]: can inhibit the in vivo growth
- Mice tumor weight after experiment [6]: 1.94 ± 0.43 g
- In vivo tumor growth (in words) (S180): can inhibit the in vivo growth
- Mice survival rate after experiment [7]: 50%
- Mice tumor weight after experiment [7]: 0.60 ± 0.45 g
- Mice weight after experiment [7]: 20.8 ± 1.5 g
- Co-localization with other internalization-related membrane receptors (in words) [8]: no co-localization phenomenon
- Co-localization with the EGFR (in words) [8]: high-degree co-localization phenomenon

From patent publication US12077566B2, “Mutants of recombinant immunoregulatory protein of Ganoderma lucidum and applications thereof” (priority 2017, dated 2024)
